This is an account of results in PubChem BioAssay AID624286 (Southern Research Specialized Biocontainment Screening …, 2012).

The test system of this assay is VEEV TC-83 infected cells, virus titer reduction. The assay can be described thus: VEEV TC-83 virus titer reduction, cell-based secondary screen, inhibitor project set 3 (AID 624286). As to conditions: at 5 µM; active compounds read low.

The source made the active and inactive calls. No rule for the calls is given here. Some results are limits rather than exact numbers.

As for `CN1CCN(Cc2nc3ccc([N+](=O)[O-])cc3c(=O)n2-c2ccccc2F)CC1`, the log virus titer change was less than -7.76.

In the case of `O=c1c2cc([N+](=O)[O-])ccc2nc(CN2CCCCC2)n1-c1ccccc1F`, the log virus titer change was -0.366 (inactive). Then `CCN1CCN(Cc2nc3ccc([N+](=O)[O-])cc3c(=O)n2-c2ccccc2)CC1`, with less than -7.54; and `CCN1CCN(Cc2nc3ccc([N+](=O)[O-])cc3c(=O)n2-c2cccc(F)c2)CC1`, with less than -7.11; and `O=c1c2cc([N+](=O)[O-])ccc2nc(CN2CCNCC2)n1-c1ccccc1F`, with less than -7.76.

Consider `CCN1CCN(Cc2nc3ccc([N+](=O)[O-])cc3c(=O)n2-c2ccc(F)cc2)CC1`, for which the log virus titer change was -5.88. Then `O=c1c2cc([N+](=O)[O-])ccc2nc(CN2CCNCC2)n1-c1ccccc1`, with less than -7.76.

Regarding `CCN1CCN(Cc2nc3ccc(I)cc3c(=O)n2-c2ccccc2)CC1`, the log virus titer change is -0.33 (inactive).
